What was measured:
[1] = system: A549 (OX+) cells; test: Sulphorodamine B viability assay; assay type: cell-based, human; details: A549 (OX+) cells in vitro
Method: A549_LUC and H460_LUC, human lung cancer cells, were stably transfected with luciferase (pRRLsin-MND-Luc-WPRE). […] Also, they were tested as luciferase positive using direct application of 2 mL of a 150 mg/ml solution of luciferine (Firefly Luciferin, Caliper Lifescience Corp, USA), followed by immediate bioluminescent imaging using the photonIMAGER™ optima system.
Briefly, cells were seeded in 96-well plates and medium was changed after 24 h, then Test Reagent was added on top of the cell wells and incubated for up to 72h. The viability assay was performed using Sulforhodamine B colorimetric assay for viability assay following the protocol described by Vanicha Vichai & Kanyawim Kirtikara.

[2] = system: A549 cells expressing luciferase; test: Orthotopic mouse model of human lung OX+ adenocarcinoma, bioluminescence imaging; assay type: in vivo, mice; details: luminescence imaging at day 3 and day 18; Trimetazidine 20mg/kg/day
Source text: (§1) All procedures using animals were approved by the Animal Care and Use Ethics Committee of the University of Bordeaux. The NOD/LtSz-scid/IL-2Rychain^null (NSG) mice were produced and housed in the University Bordeaux Segalen animal facility, according to the rules and regulations governed and enforced by the Institutional Animal Care and Use Committee. The animal facility institutional agreement number is A33063916. Animals were included in protocols between 6 and 8 weeks old. Mice were monitored weekly for body weights and were also examined for aspect and behavior during the time-course of the experiments. No changes were noticed except otherwise indicated.
(§2) The orthotopic mouse models of OX+ or OX- human LUAD were obtained by using luciferase expressing clones of A549 or H460 lung adenocarcinoma cell lines, respectively. Groups of 5 mice were anesthetized with isoflurane and 1 × 10^6 cells in a volume of 100µl were injected in the lung of 8-weeks NGS mice and imaged 20 min after injection. Bioluminescence imaging (BLI) was performed on a Bioimager following intraperitonal injection of 150 mg/kg of D-Luciferin (Interchim, Montluçon, France). After 10 min, mice were anesthetized by isoflurane and placed into a photon bioimager (BIOSPACE LAB, Paris, France) for about 20 min to acquire luminescence images. Signals were quantified with the M3Vision software (BIOSPACE LAB). […]

[3] = system: human lung OX- H460 adenocarcinoma; test: Orthotopic mouse model of human lung OX- adenocarcinoma; assay type: in vivo, mice; details: 20 mg/kg daily
Source text: as §1, §2

[4] = system: A549 cells; test: Incorporation of [13C]-palmitate in Krebs cycle by mass spectrometry; assay type: cell-based, human; details: after 2 hours
Method: The incorporation of palmitate in Krebs cycle was followed at the level of citrate using mass spectrometry. A549 cells grown in low glucose DMEM were washed twice with PBS and resuspended in PBS containing 2 mm [U-13C]palmitate with (10 mm) glucose.
The cells were incubated for 2 h at 27 °C before fast filtration preparation of the samples for mass spectrometry analysis. Metabolites were analyzed by ionic-exchange chromatography coupled with tandem mass spectrometry (IC-MS/MS) using the method described by Bolten et al. Retention time on the column and multiple reaction monitoring (MRM) transition of each analyzed metabolite are known by the one skilled in the art.
The ^13C mass isotopomer distribution of intracellular metabolites was determined from relevant isotopic clusters in the IC-MS/MS analysis, according to Kiefer et al. ^13C mass isotopomer distribution measurements were performed using a triple quadrupole mass spectrometer (4000Qtrap, Applied Biosystems). To obtain ^13C-labeling patterns (^13C isotopologues), isotopic clusters were corrected for the natural abundance of isotopes other than 13C, using the in-house software IsoCor (available at MetaSys).

[5] = system: A549 cells; test: Mass spectrometry lipidomic analysis of cells; assay type: cell-based, human; details: inside A549 cells
Method: (§3) Extracted samples were dissolved in 100 µL CHC13; 15 µL was injected for analysis. LC separation was achieved using a Bio-Bond 5U C4 column (Dikma). The LC solvents were as follows: buffer A, 95:5 H2O:methanol + 0.03% NH4OH; buffer B, 60:35:5 isopropanol:methanol:H2O + 0.03% NH4OH. A typical LC run consisted of the following for 70 min after injection: 0.1 mL/min 100% buffer A for 5 min, 0.4 mL/min linear gradient from 20% buffer B to 100% buffer B over 50 min, 0.5 mL/min 100% buffer B for 8 min and equilibration with 0.5 mL/min 100% buffer A for 7 min. FFA analysis was performed using a Thermo Scientific Q Exactive Plus fitted with a heated electrospray ionization source. The MS source parameters were 4 kV spray voltage, with a probe temperature of 437.5 °C and capillary temperature of 268.75 °C. Full-scan MS data was collected with a resolution of 70 k, AGC target 1 × 106, maximum (max) injection time of 100 ms and a scan range of 150-2,000 m/z. […] Extracted ion chromatograms for each FFA were generated using a m/z ± 0.01 mass window around the calculated exact mass (i.e., palmitic acid, calculated exact mass for M-H is 255.2330, and the extracted ion chromatogram was 255.22-255.24). Quantification of the FFAs was performed by measuring the area under the peak and dividing this number by the area under the peak for [^13C16]palmitate. […]

[6] = system: H460 cells; test: Mass spectrometry lipidomic analysis of cells; assay type: cell-based, human; details: 48 hours
Method: as §3

[7] = Mass spectrometry lipidomic analysis of blood; assay type: in vivo, mice; details: 20mg/kg/day, day 7
Method: as §3

[8] = system: A549 cells; test: ATP measurement (CellTiter-Glo); assay type: cell-based, human; details: 500µM for 48H
Method: The ATP content was performed using the The CellTiter-Glo® Luminescent Cell Viability Assay (Promega) folowing manufacturer's instructions. Luminescence was read on a spectramax M4 Multi-Mode Microplate Reader (Molecular Devices) and values were calculated based on an ATP standard curve. The assay was normalized to cell number.

[9] = system: Complex I subunits; test: Quantitative proteome analysis of complex I subunits; assay type: cell-based, human; details: A549 cells

COc1ccc(CN2CCNCC2)c(OC)c1OC [Trimetazidine, 1-(2,3,4-trimethoxybenzyl)piperazine]
cell viability [1]: Dose-dependent reduction | tumor size [2]: Reduction of tumor size | effect on OX- tumors [3]: no effect | incorporation of [^13C]-palmitate in the Krebs cycle ([^13C]citrate isotopomers) [4]: significant reduction | accumulation of unprocessed fatty-acids [5]: accumulation | accumulation of unprocessed fatty-acids [6]: not | Fatty-acids accumulation in the blood ([7]; OX+ mice): accumulation | level of hydroxylated fatty acids (C18-OH, C18-1OH, C18-2OH, C16OH, C14OH) ([7]; blood of OX+ mice): increased | cellular ATP content [8]: altered | content of 15 Complex I subunits [9]: significant reduction | Complex I intermediate-associated protein 30 (CIA30; NDUFAF1) ([9]; after 4 hours of treatment): completely degraded
